# Literature values as cited in patent publication US10983136B2 (DiaSorin S.p.A., priority 2013, dated 2021).
# Legend:
# [1] = in circulation, under normal circumstances
# [2] = biological target: T1, vitamin D binding protein (DBP) (Homo sapiens, UniProt P02774); settings: association constant
# T1 sequence (P02774 17-474): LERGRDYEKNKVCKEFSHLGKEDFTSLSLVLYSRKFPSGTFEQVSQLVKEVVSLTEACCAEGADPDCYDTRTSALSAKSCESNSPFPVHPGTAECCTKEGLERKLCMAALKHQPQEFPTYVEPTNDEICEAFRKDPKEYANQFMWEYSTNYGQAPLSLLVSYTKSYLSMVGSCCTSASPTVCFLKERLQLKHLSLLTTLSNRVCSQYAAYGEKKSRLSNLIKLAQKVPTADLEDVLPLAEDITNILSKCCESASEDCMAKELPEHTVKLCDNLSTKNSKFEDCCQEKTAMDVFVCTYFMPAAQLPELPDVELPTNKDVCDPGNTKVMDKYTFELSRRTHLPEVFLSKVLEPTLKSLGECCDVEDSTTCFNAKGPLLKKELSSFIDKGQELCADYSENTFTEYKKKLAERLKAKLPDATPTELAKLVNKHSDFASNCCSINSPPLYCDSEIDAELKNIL
# [3] = biological target: T1, vitamin D binding protein (DBP); settings: same pH value (above 6, preferably above 7)
free form [1],"greater affinity of DBP for 25(OH)D over 1,25(OH)2D [3]",Compound,Ka (affinity of DBP) [2]
approximately 0.4%,–,"C=C1/C(=C\C=C2/CCC[C@]3(C)[C@@H]([C@H](C)CCCC(C)(C)O)CC[C@@H]23)C[C@@H](O)C[C@@H]1O [1,25(OH)2D, 1,25-dihydroxyvitamin D]",–
approximately 0.03%,about 1000 fold,"C=C1CC[C@H](O)C/C1=C/C=C1\CCC[C@]2(C)[C@@H]([C@H](C)CCCC(C)(C)O)CC[C@@H]12 [25(OH)D, 25-hydroxyvitamin D]",5e+08 M⁻¹
–,–,vitamin D,4e+07 M⁻¹
